From US9023986B2, “Glucose-dependent insulinotropic peptide analogs” (Hoffmann-La Roche Inc., priority 2010, dated 2015)

Molecular target: T1, human GIPR (Homo sapiens, UniProt P48546)
T1 construct: host or cells: CHO-K1
T1 sequence (P48546 22-466): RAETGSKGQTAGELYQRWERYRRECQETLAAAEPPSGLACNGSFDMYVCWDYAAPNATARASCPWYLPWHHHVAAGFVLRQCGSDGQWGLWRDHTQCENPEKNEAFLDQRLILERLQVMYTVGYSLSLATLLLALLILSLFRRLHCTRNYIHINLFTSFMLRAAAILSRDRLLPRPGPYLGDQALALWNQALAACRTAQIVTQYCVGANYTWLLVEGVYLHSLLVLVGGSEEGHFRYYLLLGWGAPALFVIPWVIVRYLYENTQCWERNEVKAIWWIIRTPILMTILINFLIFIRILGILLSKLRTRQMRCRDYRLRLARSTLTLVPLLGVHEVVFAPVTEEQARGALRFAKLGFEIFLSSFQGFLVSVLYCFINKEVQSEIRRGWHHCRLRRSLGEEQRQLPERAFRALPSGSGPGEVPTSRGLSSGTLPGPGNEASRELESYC
Assay: cAMP production in CHO-K1 cells expressing human GIPR (LANCE cAMP assay)
Type: cell-based
Details: for Emax: CHO-K1, read-out: % activation of cAMP (maximal stimulation)
Description: CHO—K1 cells expressing human GIPR were obtained from DiscoverX Corporation (Fremont, Calif.). The cells were cultured in Ham's F-12 nutrient media supplemented with 10% foetal bovine serum, 800 μg/ml geneticin, 300 μg/ml hydromycin, 2 mM L-glutamine, and Penicillin-streptomycin (100 units, 100 μg) at 37° C. in a 5% CO2 incubator. The cells were harvested at 90% confluence.
The cells were suspended in Ham's F-12 nutrient media to a concentration of 200,000 cells/ml. The cells were then plated in a 384 well plate at with […] of the suspension added per well. The cells were incubated overnight at 37° C. in a 5% CO2 incubator.
The activity of the compounds was determined by stimulating the CHO—K1 cells with the test compound, and measuring the levels of cAMP produced. The activity of the compounds was compared to the activity of native GIP, as GIP stimulates cAMP production. 6 μl of the test compound in stimulation buffer (990 ml Hank's Balanced Salt solution (HBSS) (1×) (Invitrogen Corp #14025-092), 10 ml Hepes buffer solution (1 mol·L) (Invitrogen Corp 15630-080), 1 g BSA (final 0.1%), and 1 ml IBMX 250 mM stock prepared fresh in DMSO (Sigma-Aldrich 15879)) were added to cells, followed by 6 μl of Alexa Fluor® 647-anti cAMP antibody (Perkin Elmer) in stimulation buffer. […] The well plate was centrifuged for 3 min at 300 rpm, and incubated at room temperature for 45 minutes. 12 μl of detection mixture (biotin cAMP and EUW8044 labeled streptavidin (Eu-SA) in cAMP Detection Buffer (Perkin Elmer)) was added and incubated for 60 min at room temperature.
The levels of cAMP produced were measured according to the detailed protocol outlined in the Perkin Elmer LANCE cAMP Assay Perkin Elmer Lance cAMP Kit manual. The activity of the compounds was compared to the activity of native GIP.
The plates are read on a TRF detection instrument, EnVision® (Perkin Elmer) (excitation at 340 nm and emission at 665 nm). The values of the cAMP signal are obtained from the standard cAMP curve and used to determine the amount of maximal stimulation, and EC50 for stimulating the cAMP signal.

SMILES | EC50 [nM] | Emax [%]
CC[C@H](C)[C@H](NC(=O)[C@H](CO)NC(=O)[C@H](Cc1ccc(O)cc1)NC(=O)[C@H](CC(=O)O)NC(=O)[C@H](CO)NC(=O)[C@@H](NC(=O)[C@H](Cc1ccccc1)NC(=O)[C@@H](NC(=O)CNC(=O)[C@H](CCC(=O)O)NC(=O)[C@H](C)NC(=O)[C@@H](Cc1ccc(Cl)cc1)NC(C)=O)[C@@H](C)O)[C@@H](C)CC)C(=O)N[C@@H](C)C(=O)N[C@@H](CCSC)C(=O)N[C@@H](CC(=O)O)C(=O)N[C@@H](CCCCN)C(=O)N[C@H](C(=O)N[C@@H](Cc1c[nH]cn1)C(=O)N[C@@H](CCC(N)=O)C(=O)N[C@@H](CCC(N)=O)C(=O)N[C@@H](CC(=O)O)C(=O)N[C@@H](Cc1ccccc1)C(=O)N[C@H](C(=O)N[C@@H](CC(N)=O)C(=O)N[C@@H](Cc1c[nH]c2ccccc12)C(=O)N[C@@H](CC(C)C)C(=O)N[C@@H](CC(C)C)C(=O)N[C@@H](C)C(=O)N[C@@H](CCC(N)=O)C(=O)N[C@@H](CCCCN)C(N)=O)C(C)C)[C@@H](C)CC [Example 14] | 0.025 | 106
CC[C@H](C)[C@H](NC(=O)[C@H](CO)NC(=O)[C@H](Cc1ccc(O)cc1)NC(=O)[C@H](CC(=O)O)NC(=O)[C@H](CO)NC(=O)[C@@H](NC(=O)[C@H](Cc1ccccc1)NC(=O)[C@@H](NC(=O)CNC(=O)[C@H](CCC(=O)O)NC(=O)[C@H](C)NC(=O)CCc1ccc(O)cc1)[C@@H](C)O)[C@@H](C)CC)C(=O)N[C@@H](C)C(=O)N[C@@H](CCSC)C(=O)N[C@@H](CC(=O)O)C(=O)N[C@@H](CCCCN)C(=O)N[C@H](C(=O)N[C@@H](Cc1c[nH]cn1)C(=O)N[C@@H](CCC(N)=O)C(=O)N[C@@H](CCC(N)=O)C(=O)N[C@@H](CC(=O)O)C(=O)N[C@@H](Cc1ccccc1)C(=O)N[C@H](C(=O)N[C@@H](CC(N)=O)C(=O)N[C@@H](Cc1c[nH]c2ccccc12)C(=O)N[C@@H](CC(C)C)C(=O)N[C@@H](CC(C)C)C(=O)N[C@@H](C)C(=O)N[C@@H](CCC(N)=O)C(=O)N[C@@H](CCCCN)C(N)=O)C(C)C)[C@@H](C)CC [Example 7] | 0.095 | 103
CC[C@H](C)[C@H](NC(=O)[C@H](CO)NC(=O)[C@H](Cc1ccc(O)cc1)NC(=O)[C@H](CC(=O)O)NC(=O)[C@H](CO)NC(=O)[C@@H](NC(=O)[C@H](Cc1ccccc1)NC(=O)[C@@H](NC(=O)CNC(=O)[C@H](CCC(=O)O)NC(=O)[C@H](C)NC(=O)[C@@H](Cc1cccnc1)NC(C)=O)[C@@H](C)O)[C@@H](C)CC)C(=O)N[C@@H](C)C(=O)N[C@@H](CCSC)C(=O)N[C@@H](CC(=O)O)C(=O)N[C@@H](CCCCN)C(=O)N[C@H](C(=O)N[C@@H](Cc1c[nH]cn1)C(=O)N[C@@H](CCC(N)=O)C(=O)N[C@@H](CCC(N)=O)C(=O)N[C@@H](CC(=O)O)C(=O)N[C@@H](Cc1ccccc1)C(=O)N[C@H](C(=O)N[C@@H](CC(N)=O)C(=O)N[C@@H](Cc1c[nH]c2ccccc12)C(=O)N[C@@H](CC(C)C)C(=O)N[C@@H](CC(C)C)C(=O)N[C@@H](C)C(=O)N[C@@H](CCC(N)=O)C(=O)N[C@@H](CCCCN)C(N)=O)C(C)C)[C@@H](C)CC [Example 11] | 0.08 | 102
CC[C@H](C)[C@H](NC(=O)[C@H](CO)NC(=O)[C@H](Cc1ccc(O)cc1)NC(=O)[C@H](CC(=O)O)NC(=O)[C@H](CO)NC(=O)[C@@H](NC(=O)[C@H](Cc1ccccc1)NC(=O)[C@@H](NC(=O)CNC(=O)[C@H](CCC(=O)O)NC(=O)[C@H](C)NC(=O)[C@@H](Cc1ccccc1)NC(C)=O)[C@@H](C)O)[C@@H](C)CC)C(=O)N[C@@H](C)C(=O)N[C@@H](CCSC)C(=O)N[C@@H](CC(=O)O)C(=O)N[C@@H](CCCCN)C(=O)N[C@H](C(=O)N[C@@H](Cc1c[nH]cn1)C(=O)N[C@@H](CCC(N)=O)C(=O)N[C@@H](CCC(N)=O)C(=O)N[C@@H](CC(=O)O)C(=O)N[C@@H](Cc1ccccc1)C(=O)N[C@H](C(=O)N[C@@H](CC(N)=O)C(=O)N[C@@H](Cc1c[nH]c2ccccc12)C(=O)N[C@@H](CC(C)C)C(=O)N[C@@H](CC(C)C)C(=O)N[C@@H](C)C(=O)N[C@@H](CCC(N)=O)C(=O)N[C@@H](CCCCN)C(N)=O)C(C)C)[C@@H](C)CC [Example 8] | 0.685 | 102
CC[C@H](C)[C@H](NC(=O)[C@H](CO)NC(=O)[C@H](Cc1ccc(O)cc1)NC(=O)[C@H](CC(=O)O)NC(=O)[C@H](CO)NC(=O)[C@@H](NC(=O)[C@H](Cc1ccccc1)NC(=O)[C@@H](NC(=O)CNC(=O)[C@H](CCC(=O)O)NC(=O)[C@H](C)NC(=O)CCc1ccccc1)[C@@H](C)O)[C@@H](C)CC)C(=O)N[C@@H](C)C(=O)N[C@@H](CCSC)C(=O)N[C@@H](CC(=O)O)C(=O)N[C@@H](CCCCN)C(=O)N[C@H](C(=O)N[C@@H](Cc1c[nH]cn1)C(=O)N[C@@H](CCC(N)=O)C(=O)N[C@@H](CCC(N)=O)C(=O)N[C@@H](CC(=O)O)C(=O)N[C@@H](Cc1ccccc1)C(=O)N[C@H](C(=O)N[C@@H](CC(N)=O)C(=O)N[C@@H](Cc1c[nH]c2ccccc12)C(=O)N[C@@H](CC(C)C)C(=O)N[C@@H](CC(C)C)C(=O)N[C@@H](C)C(=O)N[C@@H](CCC(N)=O)C(=O)N[C@@H](CCCCN)C(N)=O)C(C)C)[C@@H](C)CC [Example 9] | 0.797 | 101
